The record followed here is ChEMBL document CHEMBL1201862, “PubChem BioAssay data set” (2004).

Active and inactive are the calls of the source.

Assay [1] has as its target T1, Short transient receptor potential channel 4 (Mus musculus, UniProt Q9QUQ5).
T1 sequence (Q9QUQ5 whole entry): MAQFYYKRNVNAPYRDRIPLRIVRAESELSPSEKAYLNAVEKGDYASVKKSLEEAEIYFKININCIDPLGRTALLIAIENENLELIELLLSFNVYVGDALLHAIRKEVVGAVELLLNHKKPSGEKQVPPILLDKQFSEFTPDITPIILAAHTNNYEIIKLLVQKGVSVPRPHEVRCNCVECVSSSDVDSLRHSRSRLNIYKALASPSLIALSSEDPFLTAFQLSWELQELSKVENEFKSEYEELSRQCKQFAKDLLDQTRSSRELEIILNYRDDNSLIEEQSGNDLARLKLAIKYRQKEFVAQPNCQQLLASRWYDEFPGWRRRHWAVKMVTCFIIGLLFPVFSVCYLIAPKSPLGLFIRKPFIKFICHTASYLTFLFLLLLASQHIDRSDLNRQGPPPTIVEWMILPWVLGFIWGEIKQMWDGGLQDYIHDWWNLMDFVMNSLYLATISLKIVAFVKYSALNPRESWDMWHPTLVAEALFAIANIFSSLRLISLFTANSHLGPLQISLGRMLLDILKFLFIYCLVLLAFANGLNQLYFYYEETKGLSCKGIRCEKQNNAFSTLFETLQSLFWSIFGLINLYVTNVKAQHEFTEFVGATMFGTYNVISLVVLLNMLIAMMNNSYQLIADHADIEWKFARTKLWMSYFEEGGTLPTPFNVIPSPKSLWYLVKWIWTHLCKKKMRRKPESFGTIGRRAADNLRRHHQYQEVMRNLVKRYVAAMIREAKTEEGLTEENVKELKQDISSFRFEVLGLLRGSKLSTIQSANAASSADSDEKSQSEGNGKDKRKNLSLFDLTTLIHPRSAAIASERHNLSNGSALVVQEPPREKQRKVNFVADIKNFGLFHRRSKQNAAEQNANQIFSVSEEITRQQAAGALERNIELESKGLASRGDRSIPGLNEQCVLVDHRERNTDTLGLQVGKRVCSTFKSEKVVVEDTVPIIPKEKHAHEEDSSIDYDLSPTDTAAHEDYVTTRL
The assay can be described thus: mouse TRPC4 channel activators, dose response, cell-based, HEK293 TRPC4/mu-opioid, Fluo-4 calcium (AID 434937). In kind it is functional.

Assay [2] concerns the target DNA dC->dU-editing enzyme APOBEC-3G (Homo sapiens, UniProt Q9HC16). Put plainly: APOBEC3G deaminase inhibitors, SAR follow-up, biochemical, fluorescence, single-stranded DNA substrate (AID 602136). In kind it is functional. The note with it: read-out: IC50_Mean.
The target in assay [3] is DNA dC->dU-editing enzyme APOBEC-3A (Homo sapiens, UniProt P31941). Put plainly: SAR analysis of small molecule inhibitors of APOBEC3A DNA Deaminase via a fluorescence-based single-stranded DNA deaminase assay. The note with it: read-out: IC50_Mean. In kind it is functional.
The target in assay [4] is T1, Short transient receptor potential channel 4. The assay can be described thus: mouse TRPC4 channel inhibitors, dose response, cell-based, HEK293 TRPC4/mu-opioid, Fluo-4 calcium (AID 434942).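 Also: potency of inhibitors blocking the TRPC4 calcium response.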 In kind it is functional.
Another assay addresses Cysteine protease ATG4B (Homo sapiens, UniProt Q9Y4P1). In kind it is functional.
Another assay addresses Phospholipase A2 (Homo sapiens, UniProt P04054). In kind it is functional.
The target of assay [5] is Protein disulfide-isomerase (Homo sapiens, UniProt P07237). The assay can be described thus: PDI inhibitors, insulin aggregation turbidity, dose response, biochemical, absorbance, cherry-picked samples (AID 602350). In kind it is functional.
A further assay concerns the target T2, Caspase-3 (Homo sapiens, UniProt P42574).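 Also: Dose-response selectivity test against caspase-3 for candidate inhibitors of sentrin-specific proteases (SENPs).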
T2 sequence (P42574 whole entry): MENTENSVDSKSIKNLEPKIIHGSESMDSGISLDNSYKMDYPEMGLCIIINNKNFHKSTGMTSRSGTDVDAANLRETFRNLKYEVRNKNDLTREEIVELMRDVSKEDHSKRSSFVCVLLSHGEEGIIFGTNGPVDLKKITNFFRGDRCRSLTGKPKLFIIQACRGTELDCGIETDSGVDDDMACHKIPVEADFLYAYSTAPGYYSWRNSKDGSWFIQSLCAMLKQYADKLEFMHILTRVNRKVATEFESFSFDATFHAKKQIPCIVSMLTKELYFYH
In kind it is functional.

Assay [6] deals with T3, Sentrin-specific protease 7 (Homo sapiens, UniProt Q9BQF6).
T3 sequence (Q9BQF6 whole entry): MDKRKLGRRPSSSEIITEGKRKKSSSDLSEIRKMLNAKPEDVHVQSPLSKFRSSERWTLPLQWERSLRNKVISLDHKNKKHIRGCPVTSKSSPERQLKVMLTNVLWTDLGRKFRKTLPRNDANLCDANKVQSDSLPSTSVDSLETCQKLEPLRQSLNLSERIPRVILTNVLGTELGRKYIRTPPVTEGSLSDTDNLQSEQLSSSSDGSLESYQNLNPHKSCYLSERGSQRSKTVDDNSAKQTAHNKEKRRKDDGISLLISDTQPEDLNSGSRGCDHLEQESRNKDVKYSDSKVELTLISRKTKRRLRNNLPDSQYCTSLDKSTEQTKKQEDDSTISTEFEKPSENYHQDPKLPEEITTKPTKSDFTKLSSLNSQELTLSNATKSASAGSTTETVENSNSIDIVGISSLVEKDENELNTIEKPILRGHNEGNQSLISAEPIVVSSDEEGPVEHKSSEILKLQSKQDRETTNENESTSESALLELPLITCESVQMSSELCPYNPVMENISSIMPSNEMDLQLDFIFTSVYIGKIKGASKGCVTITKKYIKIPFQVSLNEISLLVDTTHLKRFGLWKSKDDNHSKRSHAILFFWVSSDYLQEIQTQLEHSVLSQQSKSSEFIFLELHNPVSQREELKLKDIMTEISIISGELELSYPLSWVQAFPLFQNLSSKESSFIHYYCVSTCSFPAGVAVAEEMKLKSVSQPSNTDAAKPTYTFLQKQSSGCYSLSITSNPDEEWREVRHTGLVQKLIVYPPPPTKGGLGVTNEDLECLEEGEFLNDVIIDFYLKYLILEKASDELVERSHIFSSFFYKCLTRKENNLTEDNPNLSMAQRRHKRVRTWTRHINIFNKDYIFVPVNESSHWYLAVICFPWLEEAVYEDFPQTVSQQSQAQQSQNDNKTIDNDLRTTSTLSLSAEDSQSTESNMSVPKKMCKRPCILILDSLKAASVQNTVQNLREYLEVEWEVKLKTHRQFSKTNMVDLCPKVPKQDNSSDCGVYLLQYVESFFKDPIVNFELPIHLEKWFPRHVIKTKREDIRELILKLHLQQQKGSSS
In kind it is functional.

For assay [7], the target named is T4, Sentrin-specific protease 6 (Homo sapiens, UniProt Q9GZR1).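 Also: Luminescence-based dose-response confirmatory assay of SENP6 inhibition, following up an ultra-high-throughput screen.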
T4 sequence (Q9GZR1 whole entry): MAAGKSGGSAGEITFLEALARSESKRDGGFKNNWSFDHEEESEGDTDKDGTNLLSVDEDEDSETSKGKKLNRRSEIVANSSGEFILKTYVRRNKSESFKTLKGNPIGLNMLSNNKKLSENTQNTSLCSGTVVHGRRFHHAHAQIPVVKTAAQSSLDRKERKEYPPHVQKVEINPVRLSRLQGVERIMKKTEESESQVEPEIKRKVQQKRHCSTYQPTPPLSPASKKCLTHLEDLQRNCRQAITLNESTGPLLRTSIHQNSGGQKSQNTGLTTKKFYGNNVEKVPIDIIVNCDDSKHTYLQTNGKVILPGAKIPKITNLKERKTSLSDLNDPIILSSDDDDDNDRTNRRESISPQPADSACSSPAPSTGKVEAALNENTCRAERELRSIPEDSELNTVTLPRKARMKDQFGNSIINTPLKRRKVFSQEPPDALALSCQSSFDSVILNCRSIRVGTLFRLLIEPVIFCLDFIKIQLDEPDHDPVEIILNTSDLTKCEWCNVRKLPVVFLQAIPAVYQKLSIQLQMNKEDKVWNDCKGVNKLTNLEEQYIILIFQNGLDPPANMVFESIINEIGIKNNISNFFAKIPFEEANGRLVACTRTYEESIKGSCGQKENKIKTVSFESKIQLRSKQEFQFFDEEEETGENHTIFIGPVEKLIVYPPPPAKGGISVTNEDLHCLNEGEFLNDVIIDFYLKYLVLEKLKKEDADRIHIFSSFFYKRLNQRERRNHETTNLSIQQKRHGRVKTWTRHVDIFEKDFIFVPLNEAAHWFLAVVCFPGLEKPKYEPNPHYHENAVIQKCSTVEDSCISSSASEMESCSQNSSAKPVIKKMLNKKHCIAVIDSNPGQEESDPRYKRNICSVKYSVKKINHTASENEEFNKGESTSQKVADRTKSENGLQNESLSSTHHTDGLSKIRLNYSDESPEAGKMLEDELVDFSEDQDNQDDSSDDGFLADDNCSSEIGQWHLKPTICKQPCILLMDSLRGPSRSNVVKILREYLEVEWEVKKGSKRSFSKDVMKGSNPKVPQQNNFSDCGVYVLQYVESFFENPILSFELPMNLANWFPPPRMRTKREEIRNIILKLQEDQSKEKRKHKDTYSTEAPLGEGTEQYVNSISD
In kind it is functional.

Assay [8] addresses T5, Sentrin-specific protease 8 (Homo sapiens, UniProt Q96LD8).
T5 sequence (Q96LD8 whole entry): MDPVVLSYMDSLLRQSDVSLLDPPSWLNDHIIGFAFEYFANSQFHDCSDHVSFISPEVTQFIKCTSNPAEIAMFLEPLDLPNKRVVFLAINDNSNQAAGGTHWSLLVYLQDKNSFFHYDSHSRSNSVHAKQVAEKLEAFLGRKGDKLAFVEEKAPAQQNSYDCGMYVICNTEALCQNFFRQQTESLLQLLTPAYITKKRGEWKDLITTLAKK
In kind it is functional.

Assay [9] has as its system Streptococcus sp. 'group A'. Put plainly: growth inhibition of control SK(-) GAS strain, dose response, counter-screen for streptokinase expression inhibitor project, luminescence, kanamycin, BacTiterGlo, confirmation (AID 1900). In kind it is functional, organism-based. A general note: Counterscreens check selectivity or assay interference.
The nature of assay [10]: inhibitors of intracellular T. cruzi replication, confirmation, NIH3T3 host cells, beta-gal luminescence (AID 2044).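 Also: intracellular parasites grown in NIH/3T3 mouse fibroblasts as host cells; luminescent beta-galactosidase reporter signal from transgenic T. cruzi replicating inside host cells; inhibitors lower the luminescence signal.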 In kind it is functional, cell-based.
A short description of assay [11]: cytotoxicity toward NIH3T3 fibroblasts, dose response, counter-screen, cell-based, ATP luminescence, mouse fibroblasts (AID 2010).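 Also: cells exposed to compound for about 90 hours before reading.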 In kind it is functional.
A further assay relates to Streptococcus. Put plainly: Group A Streptococcus viability loss, dose response, counter-screen for streptokinase expression inhibitor project, luminescence, BacTiterGlo (AID 1915).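 Also: potency for reduction of bacterial viability or growth.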 In kind it is functional, organism-based.
A short description of assay [12]: Luminescence Cell-Based Dose Retest to Confirm Inhibitors of Cancer Stem Cells. [Related pubchem assays (depositor defined):AID2717, AID2721]. In kind it is functional. The note with it: Homo sapiens.
A further assay deals with CHO. The assay can be described thus: cytotoxicity in TLR9-MyD88 CHO cells, dose response, cytotoxicity control for TLR9-MyD88 binding inhibitor project, cell-based, luminescence (AID 588339).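 Also: CHO cells stably coexpressing TLR9 and MyD88 fusions from primary screen; compound exposure lasted 48 hours before viability readout.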 In kind it is functional, hamster. The note with it: Cricetulus griseus.
Assay [13] addresses Heat shock protein HSP 90-alpha (Homo sapiens, UniProt P07900). In kind it is functional, organism-based.
In a further assay the target is Beta Lactamase (Pseudomonas aeruginosa, UniProt Q932Y6). Put plainly: beta-lactamase reporter inhibitor potency, dose response, artefact control for TLR9-MyD88 binding inhibitor project, BLA reporter cells, FRET fluorescence (AID 588341).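 Also: cell based assay in CHO-K1 cells stably expressing beta-lactamase.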 In kind it is cell-based.
Assay [14] is described as follows: microbe, parasite or virus in culture. In kind it is functional. The note with it: Mycobacterium tuberculosis.
For another assay, the system named is INS1. Put plainly: beta cell apoptosis inhibitors, cytokine rescue, dose response, luminescence, retest (AID 449756).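 Also: cell death triggered by IL-1 beta plus TNF-alpha plus IFN-gamma mixture; protective hits raise ATP signal compared with cytokine alone wells.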 In kind it is functional, cell-based. The note with it: Rattus norvegicus.
Another assay addresses Genome polyprotein (dengue virus type 2, UniProt P29990). Put plainly: Dengue-2 NS5 methyltransferase inhibitors, primary screen, biochemical, confirmation dose response (AID 588689). In kind it is functional.

Phospholipase A2, sequence (P04054 whole entry): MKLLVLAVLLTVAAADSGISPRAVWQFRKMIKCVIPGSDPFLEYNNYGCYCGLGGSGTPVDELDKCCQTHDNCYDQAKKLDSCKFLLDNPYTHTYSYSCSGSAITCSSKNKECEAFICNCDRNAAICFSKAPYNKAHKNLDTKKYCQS
DNA dC->dU-editing enzyme APOBEC-3G, sequence (Q9HC16 whole entry): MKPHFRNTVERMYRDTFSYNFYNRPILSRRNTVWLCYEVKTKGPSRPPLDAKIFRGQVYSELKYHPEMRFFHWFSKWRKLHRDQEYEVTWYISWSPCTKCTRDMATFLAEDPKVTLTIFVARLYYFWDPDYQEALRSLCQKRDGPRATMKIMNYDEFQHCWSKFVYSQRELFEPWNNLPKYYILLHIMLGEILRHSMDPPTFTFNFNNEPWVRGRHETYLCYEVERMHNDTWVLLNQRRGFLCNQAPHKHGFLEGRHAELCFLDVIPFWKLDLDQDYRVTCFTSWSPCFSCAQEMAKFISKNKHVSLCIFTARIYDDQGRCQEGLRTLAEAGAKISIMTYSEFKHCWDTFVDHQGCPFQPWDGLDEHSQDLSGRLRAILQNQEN
Beta Lactamase, sequence (Q932Y6 whole entry): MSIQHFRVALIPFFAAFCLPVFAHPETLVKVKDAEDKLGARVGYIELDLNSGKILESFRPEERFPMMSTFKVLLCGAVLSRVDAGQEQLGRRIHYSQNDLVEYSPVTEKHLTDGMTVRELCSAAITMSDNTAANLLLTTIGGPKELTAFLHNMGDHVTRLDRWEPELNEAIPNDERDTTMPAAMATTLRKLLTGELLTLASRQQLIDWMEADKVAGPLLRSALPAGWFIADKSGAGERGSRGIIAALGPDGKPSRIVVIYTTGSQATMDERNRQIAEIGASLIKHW
DNA dC->dU-editing enzyme APOBEC-3A, sequence (P31941 whole entry): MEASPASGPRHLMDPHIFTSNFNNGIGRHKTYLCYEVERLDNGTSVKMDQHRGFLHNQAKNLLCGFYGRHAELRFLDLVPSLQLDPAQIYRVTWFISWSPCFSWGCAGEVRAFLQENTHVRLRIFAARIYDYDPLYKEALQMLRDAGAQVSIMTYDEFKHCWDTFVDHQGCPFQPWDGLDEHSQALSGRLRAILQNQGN
Cysteine protease ATG4B, sequence (Q9Y4P1 whole entry): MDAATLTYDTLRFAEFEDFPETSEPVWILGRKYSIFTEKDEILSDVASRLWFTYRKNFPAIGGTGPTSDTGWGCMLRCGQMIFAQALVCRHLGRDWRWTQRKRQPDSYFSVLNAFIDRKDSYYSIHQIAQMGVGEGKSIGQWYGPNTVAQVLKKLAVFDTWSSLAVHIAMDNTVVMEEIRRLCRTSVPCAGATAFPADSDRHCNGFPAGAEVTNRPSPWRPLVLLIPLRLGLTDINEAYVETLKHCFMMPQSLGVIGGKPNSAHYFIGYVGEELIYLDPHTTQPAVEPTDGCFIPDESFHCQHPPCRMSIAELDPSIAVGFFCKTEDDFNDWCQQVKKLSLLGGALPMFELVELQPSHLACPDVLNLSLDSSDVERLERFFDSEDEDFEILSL
Protein disulfide-isomerase, sequence (P07237 whole entry): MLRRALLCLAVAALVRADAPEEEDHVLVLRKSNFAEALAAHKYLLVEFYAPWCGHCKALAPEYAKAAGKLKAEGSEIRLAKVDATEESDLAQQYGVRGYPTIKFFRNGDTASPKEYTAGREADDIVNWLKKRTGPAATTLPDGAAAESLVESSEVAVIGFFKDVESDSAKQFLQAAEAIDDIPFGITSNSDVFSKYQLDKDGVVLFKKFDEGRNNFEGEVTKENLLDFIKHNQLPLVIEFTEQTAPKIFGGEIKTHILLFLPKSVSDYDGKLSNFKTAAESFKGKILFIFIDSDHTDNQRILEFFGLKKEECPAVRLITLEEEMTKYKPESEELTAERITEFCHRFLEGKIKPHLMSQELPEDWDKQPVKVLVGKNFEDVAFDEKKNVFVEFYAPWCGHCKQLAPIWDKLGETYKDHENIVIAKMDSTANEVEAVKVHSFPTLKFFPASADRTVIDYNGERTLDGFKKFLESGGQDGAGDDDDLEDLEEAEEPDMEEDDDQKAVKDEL
Genome polyprotein, sequence (P29990 2492-3391 limits assumed): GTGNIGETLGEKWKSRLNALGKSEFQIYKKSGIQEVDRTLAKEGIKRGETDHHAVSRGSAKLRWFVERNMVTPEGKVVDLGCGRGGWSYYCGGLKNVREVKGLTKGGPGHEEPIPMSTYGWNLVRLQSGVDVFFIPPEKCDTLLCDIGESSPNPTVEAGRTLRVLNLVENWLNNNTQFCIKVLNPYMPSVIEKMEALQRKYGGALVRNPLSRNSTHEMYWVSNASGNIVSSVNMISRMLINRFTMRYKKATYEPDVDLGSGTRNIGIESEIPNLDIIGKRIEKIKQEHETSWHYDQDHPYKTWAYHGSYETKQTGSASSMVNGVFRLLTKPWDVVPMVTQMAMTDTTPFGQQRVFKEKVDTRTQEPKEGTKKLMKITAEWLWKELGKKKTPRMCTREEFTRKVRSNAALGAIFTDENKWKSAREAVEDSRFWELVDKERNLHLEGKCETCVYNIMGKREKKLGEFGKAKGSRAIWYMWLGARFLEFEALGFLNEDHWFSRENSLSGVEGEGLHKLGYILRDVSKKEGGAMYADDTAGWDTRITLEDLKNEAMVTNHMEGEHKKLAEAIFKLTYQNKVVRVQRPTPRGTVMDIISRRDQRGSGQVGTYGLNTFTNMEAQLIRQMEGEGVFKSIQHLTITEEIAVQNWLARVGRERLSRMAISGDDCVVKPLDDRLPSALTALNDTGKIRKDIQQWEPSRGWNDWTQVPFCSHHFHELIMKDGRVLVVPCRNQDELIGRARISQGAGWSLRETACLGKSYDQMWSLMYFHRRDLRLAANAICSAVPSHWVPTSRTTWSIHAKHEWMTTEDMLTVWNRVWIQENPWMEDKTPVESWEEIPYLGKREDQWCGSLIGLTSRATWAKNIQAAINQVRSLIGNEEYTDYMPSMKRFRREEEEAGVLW

On to `COc1ccc2c(Cl)c(-c3nnc4n3CCCCC4)sc2c1`, for which the concentration giving a half-maximal response (EC50) in [1] was 1.88 µM (active). Besides, the IC50 in [2] and in [3] was > 99 µM (inactive) in each case.
On to `O=C(O)c1cc(NN=C2c3ccccc3-c3ccccc32)ccc1Cl`, for which the EC50 in [4] was 2.99 µM (active). Moreover, the values for the IC50 at Cysteine protease ATG4B and on Phospholipase A2 were 9.33 µM (active) and 9.27 µM (active), respectively.
Consider `Cc1cccn2c(CN(C)C3CCCc4ccccc43)c(C(=O)N3CCOCC3)nc12` (centres undefined), for which the concentration at half-maximal activity (AC50) in [5] is 19.5 µM (active).
In the case of `O=C(Nc1ccc(Br)cn1)c1ccc(Br)s1`, the IC50 on Caspase-3 was 20.4 µM (active); in assay [6] it was 6.53 µM (active); in [7] it was > 100 µM (inactive); in [8], > 100 µM (inactive).
For the compound `O=C(CSc1nnc(COc2ccc(Cl)cc2)n1Cc1ccco1)c1ccccc1F`, the IC50 at Cysteine protease ATG4B is 2.36 µM (active); at Phospholipase A2, 55.7 µM (inactive).
Take `O=[N+]([O-])c1ccc(N2N=C(c3ccccc3)CC2c2ccccc2O)cc1` (centres undefined): the EC50 was 2.31 µM (active) in assay [9], 1.45 µM (active) in assay [10], > 60 µM (not active) in assay [11] and 3.46 µM (active) in the assay with Streptococcus. For the same compound, the half-maximal activity concentration (AC50) in assay [12] was 2.65 µM (active); in assay [13], 3.31 µM (active). The IC50 is 28.5 µM (inactive) in the assay with CHO and 4.58 µM (active) on Beta Lactamase.
Consider `N#Cc1c([N+](=O)[O-])cc([N+](=O)[O-])cc1S(=O)(=O)Cc1ccccc1`, for which the CC50 in assay [14] is > 40 µM (active). The AC50 in [12] was 1.61 µM (active); in the assay on INS1, 3.59 µM (active). For the same compound, the results for the IC50 in the assay with CHO, on Beta Lactamase and on Genome polyprotein were 1.6 µM (active), 12.1 µM (inactive) and > 100 µM (active), respectively.
On to `Cc1nc(Cc2nnc(SCC(=O)c3cc(C)n(Cc4ccccc4)c3C)o2)cs1`, for which the IC50 in assay [2] and in [3] was > 99 µM (inactive) throughout.

For orientation: EC50 means the concentration at which the effect is half-maximal. A word on the AC50: it is the midpoint of the concentration-response curve, whichever way the signal moves.
